Assays:
[1] = system: SHR (Spontaneously hypertensive rat); experiment: Systolic blood pressure of SHR by tail cuff method; assay type: in vivo; settings: 5 hours after administration, HCTZ 10 mg/kg, pratosartan 3 mg/kg, mean ± SD, in mmHg (unit assumed); for systolic blood pressure level, Day 1: before drug 220-222
Experimental: The systolic blood pressure level of male 20 weeks old SHR (Spontaneously hypertensive rat, SPF grade) was measured by tail cuff methods, and animals were randomized into 4 groups to balance the systolic blood pressure level among groups. 0.5% methylcellulose (MC) or drugs suspended in 0.5% MC were administered for 28 days, and systolic blood pressure levels after 5 hours of drug administration were measured at day 1, 7, 14 and 28. In table 3 , experimental groups, subject substances, doses, and the measured blood pressure levels (mean±standard deviation) were shown in table 4. Further, the subject substances were hydrochlorothiazide (HCTZ), pratosartan, and co-administration of HCTZ and pratosartan. The dose of HCTZ and pratosartan were 10 mg/kg and 3 mg/kg, respectively, and the dosage volume was 2 mL/kg in each case.

[2] = system: male 6 weeks old SD rats; experiment: Uricosuric action estimated by delayed disappearance of blood phenol red; assay type: in vivo, rat; settings: for The enhance rate of uric acid excretion (%): phenol red 75 mg/kg i.v. 3 h later, serum 1 h after, control group = 100%, mean ± SD
Experimental: The uricosuric action is estimated by the delayed disappearance of blood phenol red level as a marker. Namely, male 6 weeks old SD rats were orally administered 0.5% methylcellulose (MC) or pratosartan (30 mg/kg or 100 mg/kg), and after three hours, phenol red solution (75 mg/kg) was intravenously adirninstered. One hour after phenol red administration, blood sample was collected from abdominal aorta under ether anesthesia, and the amount of phenol red in serum was determined. The amount of phenol red level in control group was taken as 100%, and the delayed rate of phenol red disappearance from blood in pratosartan treated group was estimated as the enhance rate of uric acid excretion (%). In table 1, experimental groups, subject substances, doses and the enhance rates of uric acid excretion (mean±standard deviation).

[3] = system: patients with mild or moderate essential hypertension; experiment: Serum cholesterol level in patients with essential hypertension; assay type: in vivo, human
Experimental: 107 patients with mild or moderate essential hypertension were administered at dose of from 40 to 160 mg/day was administered every four weeks by degrees if the hypotensive action was insufficient. Serum cholesterol level before pratosartan administration was compared with that of the last day during pratosartan administration in each patient. Also, a part of patients were other co-administered pratosartan and conventionally known hypolipidemic drugs. General names of co-administered drugs, doses and number of patients were as follows. Namely, the list was pravastatin (10 mg/day, 3 patients), simvastatin (5 mg/day, 3 patients), cerivastatin (0.15 mg/day, 2 patients), atorvastatin (5 mg/day, 1 patients), fenofibrate (150 mg/day, 1 patient) and probucol (500 mg/day, 1 patient). The results when the patients were classified in the presence and absence of other co-administered drugs, were shown in table 6 and 7. The result in the presence of co-administered drugs was shown in table 6, and the result in the absence of co-administered drug was shown in […]. Further, data were shown mean±standard deviation.

[4] = system: patients with mild and moderate essential hypertension complicated with hyperuricemia; experiment: Serum uric acid level in hypertensive patients complicated with hyperuricemia; assay type: in vivo, human; settings: 17 patients, 40 to 160 mg/day
Experimental: Studies were carried out intended for mild and moderate essential hypertension. 17 patients complicated with hyperuricemia were administered pratosartan, and serum uric acid levels (mg/dL) before drug administration and the last day during administration were determined. Further, the dose of from 40 to 160 mg/day was administered every four weeks by degrees if the hypotensive action was insufficient.

SMILES	systolic blood pressure level, Day 1 [1]	systolic blood pressure level, Day 7 [1]	systolic blood pressure level, Day 14 [1]	systolic blood pressure level, Day 28 [1]	The enhance rate of uric acid excretion (%) ([2]; 30 mg/kg oral)	The enhance rate of uric acid excretion (%) ([2]; 100 mg/kg oral)	excretion of uric acid ([2]; SD rats, 30 or 100 mg/kg oral)	Serum cholesterol level, the last day during administration ([3]; 12 patients with co-administered hypolipidemic drugs, before drug administration 250.25 ± 45.16) [mg/dL]	Serum cholesterol level, difference ([3]; 12 patients with co-administered hypolipidemic drugs, paired t-test P < 0.05) [mg/dL]	Serum cholesterol level, the last day during administration ([3]; 95 patients without co-administered drug, before drug administration 206.28 ± 39.81) [mg/dL]	Serum cholesterol level, difference ([3]; 95 patients without co-administered drug, paired t-test P < 0.01) [mg/dL]	Serum cholesterol level, the last day during administration ([3]; all 107 patients, 40 to 160 mg/day, before drug administration 211.2 ± 42.6) [mg/dL]	Serum cholesterol level, difference ([3]; all 107 patients, 40 to 160 mg/day, paired t-test P < 0.0001) [mg/dL]	Serum uric acid level, the last day during administration ([4]; before drug administration 8.0 ± 1.1) [mg/dL]	Serum uric acid level, difference ([4]; last day during administration versus before drug administration) [mg/dL]
NS(=O)(=O)c1cc2c(cc1Cl)NCNS2(=O)=O [HCTZ, hydrochlorothiazide, reference compound]	220 ± 2	219 ± 3	219 ± 4	214 ± 2											
CCCc1nc2c(n1Cc1ccc(-c3ccccc3-c3nnn[nH]3)cc1)C(=O)CCCC2 [pratosartan, 2-propyl-3-{[2′-(1H-tetrazole-5-yl)biphenyl-4-yl]methyl}-5,6,7,8-tetrahydrocyclohepta imidazole-4-(3H)-one]	206 ± 2	190 ± 3	190 ± 1	189 ± 1	105 ± 10	172 ± 17	enhance the excretion of uric acid	214.58 ± 37.31	-35.67 ± 41.49	197.66 ± 40.33	-8.62 ± 26.60	199.6 ± 40.2	-11.7 ± 29.7	7.4 ± 1.0	-0.7 ± 1.3

— patent US20070254932A1, “Drugs for Treating Duplication of Hypertension With Hyperuricemia and/or Hypercholesterolemia” (priority 2004, published 2007)
